The test system of this test is PMA-induced release of endogenous IL-6R from PBMCs from patients suffering from rheumatoid arthritis. Description: ELISA-based IL-6R release assay, PMA-induced, PBMCs from RA-patients. The note with it: Homo sapiens, PBMC; PMA 25 ng/ml, 24 hours; chimeric antibodies (CHO) and IgG at 1 μg/ml; Batimastat at 10 μM. It counts as cell-based. The protocol:
In brief, on day 1, Nunc black MaxiSorp® 96-well plates (Thermo Fisher Scientific, USA) were coated overnight with 100 μl per well of mouse anti-human IL-6R capture antibody (provided as part of the DuoSet ELISA kit) at 4 μg/ml TBS at 4° C. Meanwhile, 40,000 PBMC from patients suffering from rheumatoid arthritis (STEMCELL Technologies, Canada) cells in 80 μl of normal growth medium were seeded in each well of Greiner CELLSTAR V-bottom 96-well plates (Thermo Fisher Scientific, USA) and pre-incubated with 20 μl per well of standard growth medium supplemented with Batimastat (BB94, Abcam, UK) at 50 μM as positive control (for a final concentration of 10 μM in the resulting 100 μl sample volume), mouse IgG antibody (Thermo Fisher Scientific, USA) at 5 μg/ml as isotype control (for a final concentration of 1 μg/ml in the resulting 100 μl sample volume) or antibodies of the invention at 5 μg/ml (for a final concentration of 1 μg/ml in the resulting 100 μl sample volume) at 37° C., 5% CO2 for 30 minutes. In case of stimulation controls, 20 μl of standard growth medium without test articles were added. […] Using an infinite M1000 (Tecan Group, Switzerland) microplate reader, the fluorescence of each well was collected at an excitation wavelength of 435 nm and an emission wavelength of 555 nm.
Background: An ELISA detects its analyte on a solid surface through an enzyme-linked reagent.

From patent publication US20240287172A1, “PROTEIN BINDERS TO IRHOM2 EPITOPES” (SCIRHOM GMBH, priority 2019, published 2024) come the findings set out here.

Consider `CNC(=O)[C@H](Cc1ccccc1)NC(=O)[C@H](CC(C)C)[C@H](CSc1cccs1)C(=O)NO` [Batimastat], for which the inhibition – broadly, the relative decrease from the control value, in per cent – at 10 µM worked out at 104%.
